Assay results as given in article PMC3816687, “Relationships between Cargo, Cell Penetrating Peptidesand Cell Type for Uptake of Non-Covalent Complexes into Live Cells” (Pharmaceuticals, 2013).
Where two headings read alike, the source gives them in different places. *1 amine or outer side, *2 acyl side, *3 side chain or, on linkers, in order; H or OH if unused. Cysteamide = C(CS[*:3])N[*:1]

Assays:
[1] = system: Leishmania tarentolae; assay: Cytotoxicity test for Leishmania tarentolae (morphology and motility); format: cell-based
Description: Leishmania cells were cultivated as described previously, resuspended in PBS and treated with increasing concentrations of cocktails and CPPs for 1 h. Cytotoxic effects were monitored by changes in morphology and motility observed using a microscope at 400-fold magnification.

[2] = system: HeLa cells; details: non-covalent complexes; cited from earlier work
Description: Table 4 Intracellular amounts and concentrations. Internalized amounts are calculated from fluorescence intensities in the homogenate directly or after separation by SDS-PAGE. In the case of nucleoside triphosphates quantification was performed by fluorescence spectrometry. Estimation of cell volumes allows the calculation of intracellular concentrations. […] The rank order for the uptake of β-galactosidase into HeLa cells: JBS-Proteoducin > MPGα ≥ MPGβ > CAD-2 >> CPPP-2 // HIV-TAT = penetratin provides evidence for different requirements of enzyme and nucleotide for co ...

[3] = system: Leishmania tarentolae; assay: Internalization of β-galactosidase into Leishmania tarentolae, X-gal staining; format: cell-based; details: molar ratios 1:5, 1:10, 1:20 of cargo and CPP
Description: (§1) A detailed description of formation of complexes with peptides and proteins is given in a previous publication. Briefly, cargo proteins (ATTO488-BSA, MW ≈ 68 kDa, β-galactosidase, MW ≈ 540 kDa) and the calculated volume of stock solution of CPPs or JBS-Proteoducin were dissolved separately in 100 µL of 1× PBS). Both solutions were thoroughly mixed by repeated pipetting. The mixture was incubated for 30 minutes at 37 °C to achieve complex formation. The molar ratio of cargo to CPPs was usually calculated to 1:10. For internalization of higher amounts of cargo, both the amount of protein and stock solution of CPP or cocktail, respectively, were multiplied. Complexes of the enzyme β-galactosidase and JBS-Proteoducin were formed from 1 µg β-galactosidase and 1 µL stock solution of JBS-Proteoducin under the described conditions.
For transduction cells in an early stage of development were used. To this end stock cultures were diluted 1:10 the day before the experiment into 10 mL of culture medium in 25 cm^2-ventilated tissue culture flasks and were incubated overnight in the dark at 26 °C for optimal proliferation. Cell suspensions with an OD of 1.2 (ca. 4 × 10^7 cells/mL) were used for transduction. The cells were thoroughly washed twice with PBS (5 mL each) by centrifugation (2,000 × g, 3 min). Pellets were resuspended in the original volume of PBS containing 0.1% BSA and aliquoted into 24-well plates. Four hundred µL of cell suspension were used per experiment. Two hundred µL of the complex solutions were added to these cells and mixtures were incubated for 1 h at 26 °C in the dark with gentle agitation. Successively, 1 mL of complete growth medium (LEXSY BHI) was added per sample and incubation was continued at 26 °C for 2 h. Cells were washed twice with PBS (2 mL each) by centrifugation (2,000 × g, 3 min) prior to analysis of transduction.
(§2) Staining of the cells took place in multiwell-plates. Jurkat and Leishmania cells were stained according to the instructions described in [24], using a staining solution containing potassium ferrocyanide, potassium ferricyanide and X-gal. Leishmania cells were stained after finishing the above described transduction protocol. For Jurkat cells the staining was performed after transferring cells from spinning tubes used in the last washing step to 24-well plates. Cells were incubated in staining solution overnight and directly observed in a microscope using a 400-fold magnification.

[4] = system: HeLa cells; details: non-covalent complexes, X-Gal staining; cited from earlier work
Source text: HeLa cells: As shown in our preceding publication, the CPP cocktail JBS-Proteoducin can internalize enzymatic active β-galactosidase into all cell types investigated, including difficult to transfect Kasumi-1 cells. The active enzyme was transported not only into all types of cells but all of the observed cells are also positively stained using the β-galactosidase substrate 5-bromo-4-chloro-indolyl-β-D-galactopyranoside (X-Gal).

[5] = system: Jurkat cells; assay: Internalization of β-galactosidase into Jurkat cells, X-gal staining; format: cell-based, Human; details: complexes of β-galactosidase and CPP, ratio 1:10, X-Gal staining
Description: as §1
The thoroughly washed cell pellet was suspended in 200 µL of complex solution followed by 400 µL of serum free medium, gently mixed and transferred into 24-well plates. […] After addition of 1.4 mL of complete culture medium incubation was continued at 37 °C for approx. 2 h in a humidified atmosphere containing 5% CO2. The cells were washed by spinning down twice with PBS, three times with glycine buffer (pH 3.0) and twice with PBS.
as §2

[6] = system: COS-7 cells; assay: Degradation of CPPs by secreted and surface bound proteases of COS-7 cells; details: 60 min incubation with 0.3 × 10^6 intact cells per well, PBS, 37 °C, 5% CO2, RP18 HPLC, 220 nm
Description: In a 6-well-plate with 0.3 × 10^6 cells per well the different cell types were cultivated overnight under optimized conditions. Then medium was removed by aspiration (adherent cell) or centrifugation (suspension cells) and washed cells were incubated with CPPs in phosphate buffer solution (PBS). Incubation was performed under the same conditions as the transduction of complexes with the cargo for 1 h at 37 °C in a humidified atmosphere containing 5% CO2. After 15, 30, 45 and 60 min samples of 200 µL were taken and the proteolytic reaction was stopped by addition of 50 µL 37 perc. HCl. After freezing and lyophilization samples were analyzed by analytical high performance liquid chromatography (HPLC), using a RP18 column (Vydac 218TP). In case of MPGβ, for elution a gradient was used from 10% acetonitrile and 90% water, both containing 0.1% trifluoroacetic acid to 60% acetonitrile and 40% water in 50 min. […] The flow rate was 1.0 ml/min and detection was performed at 220 nm.

[7] = system: Leishmania tarentolae; details: non-covalent complexes; cited from earlier work
Source text: Formation of non-covalent complexes between cargo and CPP occurs by optimized interaction of the CPP with the surface of the cargo. These complexes are stabilized by ionic, polar, π-electron-cation, or hydrophobic interactions, hydrogen bonds and common interactions between molecules. Thus, for the same cell type different cargoes show different rank orders for CPPs.

[8] = system: Leishmania tarentolae; assay: Transduction of ATTO488-BSA into Leishmania tarentolae; format: cell-based; details: molar ratio 1:10, Leishmania tarentolae, fluorescence plate reader after cell lysis
Description: as §1, with “Complexes of the enzyme β-galactosidase and JBS-Proteoducin were formed from 1 µg β-galactosidase and 1 µL stock solution of JBS-Proteoducin under the described conditions.” left out
For confocal microscopy of fixed and living cells, a LSM 710 laser scanning confocal microscope was used as previously described. […] To avoid bleed-through effects in multi-fluorescence staining experiments, each dye was scanned independently in a multitracking mode. […]
Quantitative fluorescence measurements on internalized fluorescent nucleotide and SDS-PAGE with fluorescent proteins allow the calculation of the internalized amount of cargo. […] The mean volume was calculated to 1.2 × 10^−5 µL. […] Uptake of ATTO488-BSA into Leishmania tarentolae was estimated with a fluorescence plate reader after cell lysis. The volume of Leishmania tarentolae was calculated to 2.0 × 10^−7 µL.

[9] = 1 h in PBS with increasing concentrations, changes in morphology and motility, microscope 400-fold

YGRKKRRQRRR-amide [HIV-TAT (47-57), amphiphilic-cationic cell penetrating peptide, 9 positive charges]
Cytotoxicity in Leishmania tarentolae [1, 9]: ≥ 30 µM | rank order of uptake efficiency of ATTO488-dUTP into HeLa cells [2]: not able to transport | rank order for uptake efficiency of β-galactosidase into Leishmania tarentolae [3]: CAD-2 > MPGα > Histone > MPGβ >> penetratin ≥ HIV-TAT ≥ CPPP-2 | rank order for internalization of β-galactosidase into HeLa cells [4]: JBS-Proteoducin > MPGα ≥ MPGβ > CAD-2 >> CPPP-2 // HIV-TAT, penetratin

KLPVM [CPPP-2, cell penetrating pentapeptide, 2 positive charges]
Cytotoxicity in Leishmania tarentolae [1, 9]: ≥ 100 µM | rank order of uptake efficiency of ATTO488-dUTP into HeLa cells [2]: JBS-Nucleoducin > CAD-2 > MPGα ≥ MPGβ > penetratin >> CPP-2 | rank order for internalization of β-galactosidase into Jurkat cells [5]: JBS-Proteoducin > MPGβ > MPGα > CAD-2 >> CPPP-2 | rank order for uptake efficiency of β-galactosidase into Leishmania tarentolae [3]: CAD-2 > MPGα > Histone > MPGβ >> penetratin ≥ HIV-TAT ≥ CPPP-2 | rank order for internalization of β-galactosidase into HeLa cells [4]: JBS-Proteoducin > MPGα ≥ MPGβ > CAD-2 >> CPPP-2 // HIV-TAT, penetratin

Ac-GALFLGFLGAAGSTMGAWSQPKKKRKV-NH-CH2-CH2-SH [MPGβ, MPG cell penetrating peptide, 5 positive charges]
Cytotoxicity in Leishmania tarentolae [1, 9]: ≤ 5 µM | sensitivity of Leishmania tarentolae cells ([1]; concentrations of 10 µM, morphology and motility): very sensitive | rank order of uptake efficiency of ATTO488-dUTP into HeLa cells [2]: JBS-Nucleoducin > CAD-2 > MPGα ≥ MPGβ > penetratin >> CPP-2 | stability against proteolytic cleavage by COS-7 cells (HPLC peak) [6]: strongly reduced | rank order for internalization of β-galactosidase into Jurkat cells [5]: JBS-Proteoducin > MPGβ > MPGα > CAD-2 >> CPPP-2 | rank order for uptake efficiency of β-galactosidase into Leishmania tarentolae [3]: CAD-2 > MPGα > Histone > MPGβ >> penetratin ≥ HIV-TAT ≥ CPPP-2 | rank order for internalization of β-galactosidase into HeLa cells [4]: JBS-Proteoducin > MPGα ≥ MPGβ > CAD-2 >> CPPP-2 // HIV-TAT, penetratin

Ac-GALFLAFLAAALSLMGLWSQPKKKRKV-NH-CH2-CH2-SH (Ac-GALFLAFLAAALSLMGLWSQPKKKRKV-Cysteamide; SMILES CSCC[C@H](NC(=O)[C@H](CC(C)C)NC(=O)[C@H](CO)NC(=O)[C@H](CC(C)C)NC(=O)[C@H](C)NC(=O)[C@H](C)NC(=O)[C@H](C)NC(=O)[C@H](CC(C)C)NC(=O)[C@H](Cc1ccccc1)NC(=O)[C@H](C)NC(=O)[C@H](CC(C)C)NC(=O)[C@H](Cc1ccccc1)NC(=O)[C@H](CC(C)C)NC(=O)[C@H](C)NC(=O)CNC(C)=O)C(=O)NCC(=O)N[C@@H](CC(C)C)C(=O)N[C@@H](Cc1c[nH]c2ccccc12)C(=O)N[C@@H](CO)C(=O)N[C@@H](CCC(N)=O)C(=O)N1CCC[C@H]1C(=O)N[C@@H](CCCCN)C(=O)N[C@@H](CCCCN)C(=O)N[C@@H](CCCCN)C(=O)N[C@@H](CCCNC(=N)N)C(=O)N[C@@H](CCCCN)C(=O)N[C@H](C(=O)NCCS)C(C)C) [MPGα, MPG cell penetrating peptide, 5 positive charges]
Cytotoxicity in Leishmania tarentolae [1]: ≤ 5 µM | rank order of uptake efficiency of ATTO488-dUTP into HeLa cells [2]: JBS-Nucleoducin > CAD-2 > MPGα ≥ MPGβ > penetratin >> CPP-2 | rank order for transport of ATTO488-labeled BSA into Leishmania [7]: MPGα >> CAD-2 > histone | rank order for internalization of β-galactosidase into Jurkat cells [5]: JBS-Proteoducin > MPGβ > MPGα > CAD-2 >> CPPP-2 | Internalized amount, amol per cell ([8]; cargo ATTO488-BSA 1 µg + CPP): 0.8 x 10^−2 amol per cell | Internalized amount, amol per cell ([8]; cargo ATTO488-BSA 10 µg + CPP): 3.3 x 10^−2 amol per cell | rank order for uptake efficiency of β-galactosidase into Leishmania tarentolae [3]: CAD-2 > MPGα > Histone > MPGβ >> penetratin ≥ HIV-TAT ≥ CPPP-2 | rank order for internalization of β-galactosidase into HeLa cells [4]: JBS-Proteoducin > MPGα ≥ MPGβ > CAD-2 >> CPPP-2 // HIV-TAT, penetratin
